This note sets out measurements from US8637050B2, “Peptide vaccines against group A streptococci” (The United States of America, as represented by the …, priority 2001, dated 2014).

For test [1], the system named is rabbit sera prepared against whole M protein. Put plainly: ELISA: peptide recognition by anti-M protein rabbit sera. It is filed as binding. How it is done: Overlapping peptides representing each M type were assessed for their immunogenicity using ELISA and dot-immunoblot.
(§1) Levels of anti-M protein antibodies in mouse sera were determined by an enzyme-linked immunosorbent assay (ELISA) using either synthetic peptides or whole M protein as antigen. Microtiter plates (DYNEX Immulon 2 HB) were coated with 10 μg/ml antigen in 10 mM phosphate-buffered saline (PBS) at 4° C. overnight. Plates were rinsed three times with wash buffer (0.05% Tween 20 in 10 mM PBS, pH 7.2) and blocked with 1% BSA in PBS for one hour at 37° C. The appropriate test sera were applied at a starting dilution of 1:1000 and serially diluted two fold down the plate in PBS. Plates were incubated at 37° C. for 30 minutes and subsequently rinsed three times. Goat anti-rabbit or goat anti-mouse Ig-peroxidase conjugate diluted 1:10,000 in PBS was added to all wells and incubated for two hours at 37° C. Plates were rinsed three times with wash buffer and freshly prepared TMB peroxidase (Kirkegaard and Perry Laboratories) was added. Reactions were quenched with 0.18 M H2SO4 after 30 minutes at room temperature and OD450 was measured with a Labsystems Multiskan plate reader using Ascent software. ELISA titers are expressed as the reciprocal of the last dilution which gave a reading OD450>0.10.
The immunoreactivity of several synthetic peptides was determined by ELISA using rabbit sera prepared against whole M protein. The synthetic peptides are representative of relatively small portions of the M protein N-terminus; therefore, it was advantageous to determine if the epitopes contained within particular peptides were immunoreactive with sera prepared against whole M protein. It was shown that the whole anti-M protein rabbit sera of the respective serotypes could bind to each of the synthetic peptides within that serotype. However, some peptides were more highly immunoreactive than others, thus being better suited for use in the animal studies.
For orientation: In an ELISA, binding on a coated surface is turned into a signal by an enzyme label.

Test [2] relates to anti-M protein antibodies in mouse sera. Put plainly: ELISA of sera of mice immunized s.c. with peptide in alum (immunogenicity). In kind it is in vivo, mice (Swiss Webster). The protocol: as §1
Mice (6 week old female Swiss Webster, Harley-Sprague) were immunized subcutaneously (s.c.) with either the peptide in alum or alum alone for control groups. Peptides were rotated in the alum mixture for 2 hours at 4° C. and stored at 4° C. overnight prior to use.

Consider CLDQVTQLYNKHNSNYQQYSA [Peptide M3-4], for which the “immunoreactivity by ELISA using rabbit sera prepared against whole M protein” value (“immunoreactivity by ELISA” for short) in test [1] is “confirmed”. In test [2], the “ELISA (elicitation of antibodies)” value is listed as “no”.
As for CIQNIRLRHENKDLKARLENA [Peptide M1-2], in test [1], the “immunoreactivity by ELISA” value was “confirmed”. Also, the “ELISA (elicitation of antibodies)” value in test [2] is recorded as “no”.
Consider CNGDGNPREVIEDLAANNPAME [Peptide M1-4], for which the “immunoreactivity of peptide with anti-M protein rabbit sera (ELISA)” value in test [1] (rabbit sera against whole M protein of the respective serotype) is “highest reactivity”. Also, the “ELISA (elicitation of antibodies)” value in test [2] is “no”.
As to “CDLEEEREKLLNKLDKVEEEHKKD [Peptide M77-3]”, in test [1], the “immunoreactivity by ELISA” value is reported as “confirmed”.
Regarding CAEKQRLEDLGQKFERLKQRS [Peptide M12-2], in test [1], the “immunoreactivity by ELISA” value is listed as “confirmed”. For the same sequence, in test [2], the “ELISA (elicitation of antibodies)” value is “yes (weak)”.
On to CDSSREVTNELAASMWKAQAD [Peptide M58-4], for which the “immunoreactivity by ELISA” value in test [1] is “confirmed”.
As for CDNQSPAPAPVKKEAKKLNEAE [Peptide M73-5], the “immunoreactivity by ELISA” value in test [1] is listed as “confirmed”.
The same measure, in the same setting: the value for CQHKNNALTSENESLRREKDR [Peptide M94-2] was “confirmed”; that for CSVKDNEKELHNKIADLEEER [Peptide M89-3] was “confirmed”; that for CTQLYTKHNSNYQQYNAQAGR [Peptide M3-11] was “confirmed”.
Same read-out and setting: for CDPQRAKEALDKYELENHDLK [Peptide M5-2] the value was “confirmed”.
On to CDDRSVSTNSGSVSTPYNNLLNE [Peptide M92-1], for which the “immunoreactivity by ELISA” value in test [1] is “confirmed”.
Still for that read-out and setting: for CDSDNINRSVSVKDNEKELHNK [Peptide M89-1] the value was “confirmed”; for CEQAKNNNGELTLQQKYDALT [Peptide M59-1], “confirmed”.
Still for that read-out and setting: the value for CNSKNPAPAPAVPVKKEATKL [st2967-4] was “confirmed”.
Same read-out and setting: for CEEHEKVTQAREAVIREMQQR [Peptide M33-1] the value was “confirmed”; for CQAQEEALRDVLNNTPHNQLRD [Peptide M41-3], “confirmed”.
As for CKFERLKRRSELYLQQYYDNK [Peptide M12-5], in test [1], the “immunoreactivity by ELISA” value is listed as “confirmed”.
Same read-out and setting: the value for CAGQSAPKGTNVSADLYNSLWDE [Peptide M11-1] was “confirmed”.
The same measure, in the same setting: the value for CRATADNKDELIKRANGYEIQ [Peptide M18-4] was “confirmed”.
Still for that read-out and setting: for CKDELIKRKELTIIEIQNHQL [Peptide M18-5] the value was “confirmed”; for CELTLQQKYDALTNENKSLRRE [Peptide M59-2], “confirmed”; for CELHDKIKNLEEEKAELFEKLD [Peptide M2-3], “confirmed”.
For CRRERDNYLNYLYEKEELEKK [Peptide M59-4], the “immunoreactivity by ELISA” value in test [1] is given as “confirmed”.
On the same count and under the same terms, for CSDASLHNRITDLEEEREKLLNK [Peptide M77-2] the value was “confirmed”.
With CDNQSPALVKKEAKKLNEAEL [Peptide M73-4], the “immunoreactivity by ELISA” value in test [1] is given as “confirmed”.
Still for that read-out and setting: the value for CLDQVTQLYTKHNSNYQQYNA [Peptide M3-3] was “confirmed”; that for CRDITEAGVSKFWKSKFDAEQN [Peptide M82-2] was “confirmed”; that for CKKEATKLSEAELYNKIQELEE [st2967-3] was “confirmed”.
The same measure, in the same setting: the value for “CEGVSVGSDASLHNRITDLEEEREK [Peptide M77-1]” was “confirmed”; that for CRREEKDRYLYEKEELEKKNK [Peptide M94-4] was “confirmed”.
The same measure, in the same setting: the value for CDKLRLEKEELKTDLQKKERE [Peptide M101-4] was “confirmed”.
In the case of CLEDLGQKFERLKQRSELYLQ [Peptide M12-3], the “immunoreactivity by ELISA” value in test [1] is recorded as “confirmed”. Further, the “ELISA (elicitation of antibodies)” value in test [2] is on record as “no”.
On to CSELYLQQYYDNKSNGYKGDW [Peptide M12-7], for which, in test [1], the “immunoreactivity by ELISA” value is given as “confirmed”.
For the sequence CDSSREVTNELTASMWKAQAD [Peptide M58-1], in test [1], the “immunoreactivity by ELISA” value was “confirmed”.
For the sequence CTEVKAAGQSAPKGTNVSADL [Peptide M11-4], the “immunoreactivity by ELISA” value in test [1] is on record as “confirmed”.
As for CNSKNPAPAVPVKKEATKLSE [st2967-5], the “immunoreactivity by ELISA” value in test [1] was “confirmed”.
Same read-out and setting: the value for CNSMLQANNDKLTTENKNLTD [Peptide M6-5] was “confirmed”.
On the same count and under the same terms, the value for CAEIKKPQADSAWNWPKEYNA [Peptide M4-1] was “confirmed”.
Take CNENKSLRRERDNYLNYLYEK [Peptide M59-3]: in test [1], the “immunoreactivity by ELISA” value is “confirmed”.
On the same count and under the same terms, the value for CTEHEKLRDEYYTLIDAKEEE [Peptide M28-5] was “confirmed”; that for CNDELRENYRRTLDKFNTEQ [Peptide M75-3] was “confirmed”.
The same measure, in the same setting: the value for CNSKNPAPAPASAVPVKKEATK [st2967-1] was “confirmed”; that for CDNINRSVSVKDNEKELHNKIAD [Peptide M89-2] was “confirmed”.
Same read-out and setting: for CDAEQNRANELEKKLSGYEKD [Peptide M82-4] the value was “confirmed”.
Regarding CNHQLTVENKKLKTDKEQLTKE [Peptide M18-6], in test [1], the “immunoreactivity by ELISA” value is “confirmed”.
Same read-out and setting: for CLEEERGEHLDKIDELKEELK [Peptide M89-8] the value was “confirmed”; for CELHNKIADLEEERGAHLDKID [Peptide M89-5], “confirmed”.
On the same count and under the same terms, for CNSKNPVPVKKEAKLSEAELHDK [Peptide M2-1] the value was “confirmed”.
For the sequence CTVTRGTINDPQRAKEVIDKYE [Peptide M5-7], in test [1], the “immunoreactivity by ELISA” value is “confirmed”.
For CELHNEIADLEEERGEHLDKID [Peptide M89-4], the “immunoreactivity by ELISA” value in test [1] is listed as “confirmed”.
The same measure, in the same setting: the value for CTVTRSTINDPQRAKEALDKYE [Peptide M5-8] was “confirmed”; that for CLDQVTQLYTKHNSNYQQYSA [Peptide M3-5] was “confirmed”.
The same measure, in the same setting: the value for CRENYRRTLDKFNTEQGKTTR [Peptide M75-5] was “confirmed”; that for CDSDNINRFVSVKDNEKELHN [Peptide M89-6] was “confirmed”.
Same read-out and setting: the value for CLNQVTQLYTKHNSNYQQYNA [Peptide M3-6] was “confirmed”; that for CELFEKLDKVEEEHKKVEEEHKK [Peptide M2-4] was “confirmed”; that for CKENEELKVEREKYLSYADDK [Peptide M4-3] was “confirmed”.
Take CESLRREKDRYLYEKEELEKK [Peptide M94-3]: the “immunoreactivity by ELISA” value in test [1] is recorded as “confirmed”.
Same read-out and setting: the value for CAELYNKIQELEEGKAELFDK [st2967-6] was “confirmed”; that for CKFERLKQRSELYLHQYYDNK [Peptide M12-4] was “confirmed”; that for CNTLNTLTDENEKLREELQQ [Peptide M22-4] was “confirmed”.
